Structures are written as SMILES.

The subject of assay [1] is Leukemia Cell Line HL-60(TB). In kind it is cell-based. The note with it: Homo sapiens; HL-60(TB); single dose, 10 uM compound concentration; read-out: inhibition of proliferation.
Assay [2] has as its system Ovarian Cell Line NCI/ADR-RES. The assay can be described thus: cells. In kind it is cell-based. The settings on record: Homo sapiens, single dose, 10 uM compound concentration, read-out: inhibition of proliferation.
Another assay deals with PI3Kδ (Homo sapiens, UniProt O00329). As to the kind of experiment: PI3Kδ kinase assay (HTRF). In kind it is biochemical. The note with it: symbols ++ / +; read-out: PI3Kδ Inhibition Activity (IC50 class). As for the experimental part: The PIP3 product is detected by displacement of biotin-PIP3 from an energy transfer complex consisting of Europium labeled anti-GST monoclonal antibody, a GST-tagged pleckstrin homology (PH) domain, biotinylated PIP3 and Streptavidin-Allophycocyanin (APC). […] The PIP3 product formed by PI 3-Kinase(h) activity displaces biotin-PIP3 from the complex resulting in a loss of energy transfer, and thus, a decrease in signal.
First, the kinase reaction with PIP2 substrate is carried out in the presence of ATP, and the reaction is quenched with stop Solution, and then, finally detect by adding Detection Mixture followed by incubation.
HEPES 50 mM (pH7.0), NaN3 0.02%, BSA 0.01%, Orthovanadate 0.1 mM, 1% DMSO.
Detection buffer: HEPES 10 mM (pH7.0), BSA 0.02%, KF 0.16 M, EDTA 4 mM.
10 μM PIP2 substrate (PI(4,5)P2)
10 μM ATP under standard conditions
1. Prepare substrate in freshly prepared Reaction Buffer.
2. Deliver kinase into the substrate solution and gently mix.
3. Deliver compounds in 100% DMSO into the kinase reaction mixture by Acoustic technology (Echo550; nanoliter range), incubate for 10 min at room temperature.
4. Deliver ATP into the reaction mixture to initiate the reaction.
5. Incubate for 30 min at 30° C.
6. Quench the reaction with Stop Solution.
7. Add Detection Mixture, and incubate for overnight.
The emission ratio is converted into μM PIP3 production based on PIP3 standard curves.
The nonlinear regression to obtain the standard curve and IC50 values are performed using Graphpad Prism software.

Sequence of PI3Kδ (O00329 whole entry): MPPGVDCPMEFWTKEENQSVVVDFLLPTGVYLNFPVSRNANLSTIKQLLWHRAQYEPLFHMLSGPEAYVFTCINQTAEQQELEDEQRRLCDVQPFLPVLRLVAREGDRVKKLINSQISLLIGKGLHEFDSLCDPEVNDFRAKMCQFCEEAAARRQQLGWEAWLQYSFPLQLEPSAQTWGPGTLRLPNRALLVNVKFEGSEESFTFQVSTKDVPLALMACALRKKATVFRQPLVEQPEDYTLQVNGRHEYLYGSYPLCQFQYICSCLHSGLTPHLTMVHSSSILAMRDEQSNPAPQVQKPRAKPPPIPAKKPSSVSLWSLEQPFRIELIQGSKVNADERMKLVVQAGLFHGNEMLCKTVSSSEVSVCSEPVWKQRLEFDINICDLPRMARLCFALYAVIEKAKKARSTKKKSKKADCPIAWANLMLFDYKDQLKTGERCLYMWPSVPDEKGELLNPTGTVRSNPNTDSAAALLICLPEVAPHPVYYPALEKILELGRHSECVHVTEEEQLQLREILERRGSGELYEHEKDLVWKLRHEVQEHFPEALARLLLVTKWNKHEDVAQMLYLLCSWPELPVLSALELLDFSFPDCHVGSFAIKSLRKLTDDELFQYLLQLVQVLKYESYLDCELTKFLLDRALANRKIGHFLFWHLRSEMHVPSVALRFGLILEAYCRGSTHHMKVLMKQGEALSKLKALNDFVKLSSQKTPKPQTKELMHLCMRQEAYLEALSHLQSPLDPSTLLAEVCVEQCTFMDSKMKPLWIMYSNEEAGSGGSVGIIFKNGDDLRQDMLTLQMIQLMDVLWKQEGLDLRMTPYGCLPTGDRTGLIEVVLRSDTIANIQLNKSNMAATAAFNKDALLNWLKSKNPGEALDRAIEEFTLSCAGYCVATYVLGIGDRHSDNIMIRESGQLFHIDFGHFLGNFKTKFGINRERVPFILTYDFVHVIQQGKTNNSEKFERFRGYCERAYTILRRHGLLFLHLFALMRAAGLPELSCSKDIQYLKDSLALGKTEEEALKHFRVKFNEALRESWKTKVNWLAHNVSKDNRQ
Sequence of PI3Kδ (P27986 whole entry partner): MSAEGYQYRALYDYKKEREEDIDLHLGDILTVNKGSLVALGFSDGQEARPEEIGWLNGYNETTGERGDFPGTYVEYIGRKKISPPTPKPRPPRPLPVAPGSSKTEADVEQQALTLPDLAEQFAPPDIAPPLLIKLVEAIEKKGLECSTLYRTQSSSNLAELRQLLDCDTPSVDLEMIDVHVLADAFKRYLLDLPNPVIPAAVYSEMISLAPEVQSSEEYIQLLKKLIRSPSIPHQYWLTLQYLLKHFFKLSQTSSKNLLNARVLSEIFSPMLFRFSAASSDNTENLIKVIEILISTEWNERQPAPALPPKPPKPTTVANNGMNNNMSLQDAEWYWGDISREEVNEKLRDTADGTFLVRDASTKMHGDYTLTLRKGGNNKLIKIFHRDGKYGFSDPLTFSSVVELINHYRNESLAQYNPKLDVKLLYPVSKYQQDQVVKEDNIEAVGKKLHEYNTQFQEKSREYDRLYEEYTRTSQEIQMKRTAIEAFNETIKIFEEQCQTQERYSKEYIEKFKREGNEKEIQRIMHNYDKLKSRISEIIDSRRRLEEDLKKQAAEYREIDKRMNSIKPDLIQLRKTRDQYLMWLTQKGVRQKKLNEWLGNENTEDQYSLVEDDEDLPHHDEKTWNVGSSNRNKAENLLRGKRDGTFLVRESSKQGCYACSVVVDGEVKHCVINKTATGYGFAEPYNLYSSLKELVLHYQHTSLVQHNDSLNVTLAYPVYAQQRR

As a reminder, the IC50 is the concentration that gives 50% inhibition. `CC[C@H](Nc1nc(N)nc(C)c1C#N)c1nc2cccc(CN(C)c3ncc(C(=O)NO)cn3)c2c(=O)n1-c1ccccc1` [LII, (S)-2-(((2-(1-((2-amino-5-cyano-6-methylpyrimidin-4-yl)amino)propyl)-4-oxo-3-phenyl-3,4-dihydroquinazolin-5-yl)methyl)(methyl)amino)-N-hydroxypyrimidine-5-carboxamide]: the inhibition at 10 µM in assay [1] is over 50%; in assay [2], 25 to 50%. In addition, the IC50 at PI3Kδ was under 0.1 µM.
